Data reported in publication PMC8233901, “D-Amino Acid-Containing Lipopeptides Derived from the Lead Peptide BP100 with Activity against Plant Pathogens” (International Journal of Molecular Sciences, 2021).
Where a SMILES comes first, the peptide text is derived from it. [ ]: non-standard residue; d: D form. The star is where a group is joined. Lauroyl = CCCCCCCCCCCC(=O)*; Hexanoyl = CCCCCC(=O)*; Butyryl = CCCC(=O)*

What was measured:
tobacco leaves = assay: Effect of peptide infiltration on tobacco leaves (lesion size); type: in vivo; conditions: ± confidence interval; for Size of the lesion (mm) 50 µM: 100 µL infiltrated into mesophyll of tobacco leaves
Protocol: The lipopeptides were evaluated for their effect upon infiltration on tobacco leaves as described previously. Peptide solutions of 50, 150 and 250 μM were infiltrated (100 μL) into the mesophylls of fully expanded tobacco leaves. Infiltrations were carried out in a single leaf, and for each peptide and dose, at least three leaves randomly distributed in different plants were infiltrated. Control infiltrations with water (negative control) or melittin (positive control) at the same molar concentration were performed. The appearance of symptoms on the leaves was followed for 48 h after infiltration and measured as a lesion diameter.

horse erythrocytes = assay: Hemolytic activity (hemoglobin release from erythrocytes); type: cell-based; conditions: 37 °C, ± confidence interval (α = 0.05)
Protocol: The hemolytic activity of the compounds was evaluated by determining hemoglobin release from erythrocyte suspensions of horse blood (5% vol/vol) (Oxoid) as previously described. Blood was centrifuged at 6000 g for 5 min, washed three times with tris(hydroxymethyl)aminomethane (TRIS) buffer (10 mM TRIS, 150 mM NaCl, pH 7.2) and diluted 10 times. Compounds were solubilized in TRIS buffer at 750, 500, 300 and 100 μM and mixed with horse erythrocytes (1:1 v/v). The mixture was incubated under continuous shaking for 1 h at 37 °C. Then, the tubes were centrifuged at 3500 g for 10 min, 80 μL aliquots of the supernatant transferred to 100-well microplates (Bioscreen), diluted with 80 μL water, and the absorbance measured at 540 nm (Bioscreen). Complete hemolysis was obtained by the addition of melittin at 100 μM (Sigma-Aldrich Corporation, Madrid, Spain). The percentage of hemolysis (H) was calculated using the equation: H = 100 × [(Op−Ob)/(Om−Ob)], where Op is the density for a given compound concentration, Ob for the buffer, and Om for the melittin-positive control.

[1] = D-amino acid lipopeptides, lesion diameter, 48 h, at least three leaves
[2] = D-amino acid lipopeptides, 100 µL infiltrated into tobacco leaves, lesion diameter, 48 h, at least three leaves
[3] = D-amino acid lipopeptides, 250 µM, 100 µL infiltrated into tobacco leaves, lesion diameter, 48 h, at least three leaves
[4] = Table 2, 250 µM infiltrated into tobacco leaves
[5] = D-amino acid lipopeptides, 250 µM, TRIS buffer pH 7.2, 1 h, relative to melittin
[6] = D-amino acid lipopeptides, TRIS buffer pH 7.2, 1 h, relative to melittin
[7] = Table 2, 250 µM, 1 h, relative to melittin

SMILES	Size of the lesion (mm) 50 µM (tobacco leaves; [1]) [mm]	Size of the lesion (mm) 150 µM (tobacco leaves; [2]) [mm]	Size of the lesion (mm) 250 µM (tobacco leaves; [3]) [mm]	Size of the lesion (mm) 250 µM (tobacco leaves; [4]) [mm]	Hemolysis (%) 250 µM (horse erythrocytes; [5]) [%]	Hemolysis (%) 375 µM (horse erythrocytes; [6]) [%]	Hemolysis (%) 50 µM (horse erythrocytes; D-amino acid lipopeptides, 50 µM, TRIS buffer pH 7.2, 1 h, absorbance 540 nm, relative to melittin 100 µM) [%]	Hemolysis (%) 250 µM (horse erythrocytes; [7]) [%]	Hemolysis (%) 150 µM (horse erythrocytes; D-amino acid lipopeptides, 150 µM, TRIS buffer pH 7.2, 1 h, relative to melittin) [%]
CCCCCC(=O)NCCCC[C@@H](NC(=O)[C@H](CC(C)C)NC(=O)[C@H](CCCCN)NC(=O)[C@H](CCCCN)NC(C)=O)C(=O)N[C@@H](CCCCN)C(=O)N[C@@H](CCCCN)C(=O)N[C@H](C(=O)N[C@@H](CC(C)C)C(=O)N[C@@H](CCCCN)C(=O)N[C@@H](Cc1ccc(O)cc1)C(=O)N[C@@H](CC(C)C)C(N)=O)[C@@H](C)CC [BP484, Ac-KKLk(COC5H11)KKILKYL-NH2]	0 ± 0	2 ± 2	7 ± 1	7 ± 1	10 ± 2				
CCCC(=O)N[C@@H](CCCCN)C(=O)N[C@@H](CCCCN)C(=O)N[C@@H](CC(C)C)C(=O)N[C@H](Cc1ccccc1)C(=O)N[C@@H](CCCCN)C(=O)N[C@@H](CCCCN)C(=O)N[C@H](C(=O)N[C@@H](CC(C)C)C(=O)N[C@@H](CCCCN)C(=O)N[C@@H](Cc1ccc(O)cc1)C(=O)N[C@@H](CC(C)C)C(N)=O)[C@@H](C)CC [BP485, C3H7CO-KKLfKKILKYL-NH2]	4 ± 0.7	7 ± 0.7	12 ± 1	12 ± 1	24 ± 9				
CCCC(=O)NCCCC[C@H](NC(=O)[C@H](CCCCN)NC(C)=O)C(=O)N[C@@H](CC(C)C)C(=O)N[C@H](Cc1ccccc1)C(=O)N[C@@H](CCCCN)C(=O)N[C@@H](CCCCN)C(=O)N[C@H](C(=O)N[C@@H](CC(C)C)C(=O)N[C@@H](CCCCN)C(=O)N[C@@H](Cc1ccc(O)cc1)C(=O)N[C@@H](CC(C)C)C(N)=O)[C@@H](C)CC [BP486, Ac-KK(COC3H7)LfKKILKYL-NH2]	4 ± 1	8 ± 1	17 ± 2	17 ± 2	14 ± 5	14 ± 2			
CCCCCCCCCCCC(=O)NCCCC[C@@H](NC(=O)[C@H](CC(C)C)NC(=O)[C@H](CCCCN)NC(=O)[C@H](CCCCN)NC(C)=O)C(=O)N[C@@H](CCCCN)C(=O)N[C@@H](CCCCN)C(=O)N[C@H](C(=O)N[C@@H](CC(C)C)C(=O)N[C@@H](CCCCN)C(=O)N[C@@H](Cc1ccc(O)cc1)C(=O)N[C@@H](CC(C)C)C(N)=O)[C@@H](C)CC [BP488, Ac-KKLk(COC11H23)KKILKYL-NH2]	4 ± 0.7	5 ± 1	13 ± 5	13 ± 5	86 ± 14				
CCCCCCCCCCCC(=O)NCCCC[C@H](NC(=O)[C@H](CCCCN)NC(=O)[C@H](CCCCN)NC(=O)[C@@H](Cc1ccccc1)NC(=O)[C@H](CC(C)C)NC(=O)[C@H](CCCCN)NC(=O)[C@H](CCCCN)NC(C)=O)C(=O)N[C@@H](CC(C)C)C(=O)N[C@@H](CCCCN)C(=O)N[C@@H](Cc1ccc(O)cc1)C(=O)N[C@@H](CC(C)C)C(N)=O [BP489, Ac-KKLfKKK(COC11H23)LKYL-NH2] (Ac-KKL[dF]KKK(Lauroyl)LKYL-NH2)	2 ± 0.5	6 ± 2	11 ± 1	11 ± 1	100 ± 6	100 ± 1			
CCCCCCCCCCCC(=O)NCCCC[C@H](NC(=O)[C@@H](NC(=O)[C@H](CCCCN)NC(=O)[C@H](CCCCN)NC(=O)[C@@H](Cc1ccccc1)NC(=O)[C@H](CC(C)C)NC(=O)[C@H](CCCCN)NC(=O)[C@H](CCCCN)NC(C)=O)[C@@H](C)CC)C(=O)N[C@@H](CCCCN)C(=O)N[C@@H](Cc1ccc(O)cc1)C(=O)N[C@@H](CC(C)C)C(N)=O [BP490, Ac-KKLfKKIK(COC11H23)KYL-NH2] (Ac-KKL[dF]KKIK(Lauroyl)KYL-NH2)	4 ± 0.7	6 ± 2	11 ± 3	11 ±3	100 ± 6		100 ± 3		
CCCCCC(=O)NCCCC[C@H](NC(=O)[C@H](CCCCN)NC(=O)[C@H](CCCCN)NC(=O)[C@@H](Cc1ccccc1)NC(=O)[C@H](CC(C)C)NC(=O)[C@H](CCCCN)NC(=O)[C@H](CCCCN)NC(C)=O)C(=O)N[C@@H](CC(C)C)C(=O)N[C@@H](CCCCN)C(=O)N[C@@H](Cc1ccc(O)cc1)C(=O)N[C@@H](CC(C)C)C(N)=O [BP494, Ac-KKLfKKK(COC5H11)LKYL-NH2] (Ac-KKL[dF]KKK(Hexanoyl)LKYL-NH2)	1 ± 1	6 ± 1	8 ± 1	8 ± 1				0.2 ± 0.2	
CCCCCC(=O)NCCCC[C@H](NC(=O)[C@H](Cc1ccc(O)cc1)NC(=O)[C@H](CCCCN)NC(=O)[C@H](CC(C)C)NC(=O)[C@@H](NC(=O)[C@H](CCCCN)NC(=O)[C@H](CCCCN)NC(=O)[C@@H](Cc1ccccc1)NC(=O)[C@H](CC(C)C)NC(=O)[C@H](CCCCN)NC(=O)[C@H](CCCCN)NC(C)=O)[C@@H](C)CC)C(N)=O [BP495, Ac-KKLfKKILKYK(COC5H11)-NH2] (Ac-KKL[dF]KKILKYK(Hexanoyl)-NH2)	3 ± 0	6 ± 2	11 ± 2	11 ± 2				0.6 ± 1	
CCCC(=O)NCCCC[C@H](NC(=O)[C@H](Cc1ccc(O)cc1)NC(=O)[C@H](CCCCN)NC(=O)[C@H](CC(C)C)NC(=O)[C@@H](NC(=O)[C@H](CCCCN)NC(=O)[C@H](CCCCN)NC(=O)[C@@H](Cc1ccccc1)NC(=O)[C@H](CC(C)C)NC(=O)[C@H](CCCCN)NC(=O)[C@H](CCCCN)NC(C)=O)[C@@H](C)CC)C(N)=O [BP496, Ac-KKLfKKILKYK(COC3H7)-NH2] (Ac-KKL[dF]KKILKYK(Butyryl)-NH2)	3 ± 0.5	4 ± 0.5	10 ± 3	10 ± 3	1 ± 1	1 ± 0.5			
CCCCCCCCCCCC(=O)NCCCC[C@H](NC(=O)[C@H](CC(C)C)NC(=O)[C@@H](NC(=O)[C@H](CCCCN)NC(=O)[C@H](CCCCN)NC(=O)[C@@H](Cc1ccccc1)NC(=O)[C@H](CC(C)C)NC(=O)[C@H](CCCCN)NC(=O)[C@H](CCCCN)NC(C)=O)[C@@H](C)CC)C(=O)N[C@@H](Cc1ccc(O)cc1)C(=O)N[C@@H](CC(C)C)C(N)=O [BP497, Ac-KKLfKKILK(COC11H23)YL-NH2]	5 ± 1	18 ± 1	18 ± 0	18 ± 0	100 ± 2	100 ± 4			100 ± 2
CCCC(=O)NCCCC[C@H](NC(=O)[C@@H](Cc1ccccc1)NC(=O)[C@H](CC(C)C)NC(=O)[C@H](CCCCN)NC(=O)[C@H](CCCCN)NC(C)=O)C(=O)N[C@@H](CCCCN)C(=O)N[C@H](C(=O)N[C@@H](CC(C)C)C(=O)N[C@@H](CCCCN)C(=O)N[C@@H](Cc1ccc(O)cc1)C(=O)N[C@@H](CC(C)C)C(N)=O)[C@@H](C)CC [BP498, Ac-KKLfK(COC3H7)KILKYL-NH2]	4 ± 3	6 ± 2	6 ± 1	6 ± 1	21 ± 3				
